Patent US11975044B2, “Methods for treating cancers using fat specific protein 27 (FSP27) compositions” (Ohio University, priority 2017, dated 2024)
Read-outs that look alike come from different tables or passages of the source. Residues, ends and D or L forms follow the SMILES beside them. No end group written: not given here.

What was measured:
Format in all cases: cell-based
[1] = test system: HepG2 human liver cancer (hepatocellular carcinoma) cells; assay: cells; settings: for efficacy in inhibiting cell viability: human liver cancer, 50 nM; for inhibition of cell viability: human, 100 nM
Description: (§1) Human cancer cell lines (part of NCI-60 panel of human cancer cells)—SK-MEL-5 (melanoma), SK-MEL-28 (melanoma), MCF-7 (breast cancer), 786-0 (renal cancer), A498 (renal cancer), Hep-G2 (liver cancer), SK-HEP-1 (liver cancer), PANC-1 (pancreatic cancer), and normal human skin fibroblast cells MALME-3 cells were obtained from American Type Culture Collection (ATCC; Manassas, VA). The cells were grown and maintained in corresponding complete growth medium—PANC-1 in DMEM medium (ATCC), 786-0 in RPMI-1640 medium, remaining cell lines in EMEM media (ATCC), and MALME-3 in McCoy's medium (ATCC)—as indicated by ATCC protocols. Complete growth media was supplemented with 10% fetal bovine serum (FBS; ATCC) and 1× antibiotic-antimycotic (Thermo Fisher Scientific, Waltham, MA). MALME-3 cells were grown in McCoy's medium (ATCC) supplemented with 15% FBS and 1× antibiotic-antimycotic. Cells were grown at 37C/5% CO2 in a humidified incubator. Media was replaced every third day.
(§2) Recombinant hGH was purchased from Antibodies Online (Atlanta, GA), GH antagonist (GHA; Somavert) was obtained from Pfizer (New York City, NY), full length CIDEC was purchased from Abcam (Cambridge, UK) and CIDEC fragment peptides were synthesized at Genscript (Piscataway, NJ). No hGH or GHA was present in the media or added externally unless specifically mentioned. For hGH treatment, 16 hr. after cell seeding (or 24 hr. post-transfection), any GH or GHA or CIDEC or peptides were added at specific concentrations. […]
(§3) A resazurin based absorption assay was performed measuring cell proliferation, as a measure of inhibition of cell growth/viability. There are several commonly practiced assays using tetrazolium (MTT, MTS, XTT), or resazurin which give a quantitative reflection of cell viability. Although ATP detection assay is the most sensitive of the available options, resazurin-based assay is considered adequate and is routinely used to measure compound EC50s or cell viability following cytotoxic treatments. A stock solution of 1% (w/v) resazurin (Sigma-Aldrich #R7017) in 1×PBS was made and filter-sterilized. The final concentration of resazurin in the assay was 0.004%. Proliferating cells can be quantified by spectrophotometric measurement of a bright pink fluorescent product called resorufin (stable for >4 hr) formed when mildly fluorescent blue resazurin enters a reducing intracellular environment characteristic of proliferating cells. Cells were seeded at 10,000 cells/cm^2 into 96-well plates and transfected as described above. The resazurin assay was performed following the respective treatment periods and resorufin absorbance was measured at 570 nm (reference wavelength=600 nm) using Spectramax250 (Molecular Devices, Sunnyvale, CA) and SoftmaxPro software. In all cases, cells were incubated at 37C/5% CO2 for 1 hr following resazurin addition. The resazurin assay for cell proliferation was used to measure EC-50 of relevant drugs and Graph Pad Prism was used to calculate EC-50 shifts (EC50 shift=EC50 of treated cell line/EC50 of parental cell line.
(§4) A 1% (w/v) resazurin (Sigma-Aldrich) solution in 1×PBS was made and filter-sterilized. The final concentration of resazurin in the assay was 0.004%. Inside the proliferating cells mildly fluorescent blue resazurin is reduced to a bright pink fluorescent product called resorufin (stable for 4 hr), which is a quantitative measure of the percentage of proliferating cells. In all cases, cells were incubated at 37C/5% CO2 for 45-60 minutes for adequate sensitivity of detection. Briefly, cells were seeded at 10,000 cells/cm^2 into 96-well plates and transfected as described above. The resazurin assay was performed 60 hr after transfection (unless specified otherwise) and resorufin absorbance was measured at 570 nm (reference wavelength=600 nm) using Spectramax250 (Molecular Devices) and SoftmaxPro v4.7.1 software. […]

[2] = test system: SK-MEL-28 human melanoma cells; settings: 48 hr; for efficacy in inhibiting cell viability: human melanoma, 50 nM; for inhibition of cell viability: human, 100 nM
Excerpt: (§5) FIG. 10: Effect of CIDEC and fragment peptides on human melanoma cell (SK-MEL-28) viability. [full-length CIDEC, #1, #2, #4, #5, #6=shorter fragment peptides of full-length CIDEC]; Cell: human melanoma cells SK-MEL-28; Assay: Cell viability assay (Presto-Blue, Invitrogen); Doses (nM): 0, 50, 100; Treatment period (hr): 48.
as §1
as §2, with “mentioned.” for “mentioned. For hGH treatment, 16 hr. after cell seeding (or 24 hr. post-transfection), any GH or GHA or CIDEC or peptides were added at specific concentrations.”
(§6) A resazurin based absorption assay was performed measuring cell proliferation, as a measure of inhibition of cell growth/viability. There are several commonly practiced assays using tetrazolium (MTT, MTS, XTT), or resazurin which give a quantitative reflection of cell viability. […] Proliferating cells can be quantified by spectrophotometric measurement of a bright pink fluorescent product called resorufin (stable for >4 hr) formed when mildly fluorescent blue resazurin enters a reducing intracellular environment characteristic of proliferating cells. […] The resazurin assay was performed following the respective treatment periods and resorufin absorbance was measured at 570 nm (reference wavelength=600 nm) using Spectramax250 (Molecular Devices, Sunnyvale, CA) and SoftmaxPro software. […]
A 1% (w/v) resazurin (Sigma-Aldrich) solution in 1×PBS was made and filter-sterilized. […] Inside the proliferating cells mildly fluorescent blue resazurin is reduced to a bright pink fluorescent product called resorufin (stable for 4 hr), which is a quantitative measure of the percentage of proliferating cells. […]

[3] = test system: 786-O human renal cancer (clear cell renal cell carcinoma) cells; settings: for efficacy in inhibiting cell viability: human kidney cancer, 50 nM; for efficacy in inhibiting cell viability / inhibition of cell viability: 48 hr; for inhibition of cell viability: human, 100 nM
Excerpt: as §5, with “11:” for “10:”, “renal cancer” for “melanoma”, “(786-0)” for “(SK-MEL-28)”, “renal cancer cells;” for “melanoma cells SK-MEL-28;”
as §1, §2, §3
as §4, with “above.” for “above. The resazurin assay was performed 60 hr after transfection (unless specified otherwise) and resorufin absorbance was measured at 570 nm (reference wavelength=600 nm) using Spectramax250 (Molecular Devices) and SoftmaxPro v4.7.1 software.”

[4] = test system: cells; assay: Anti-cancer effect of FSP27 segment in cells
[5] = test system: human normal fibroblast cells; assay: Cell viability assay (Presto-Blue / resazurin), normal fibroblasts; settings: exposure to up to 100 nM CIDEC, 24 hr
Description: FIG. 6: Effect of CIDEC on human normal fibroblast cells; Cell: human normal fibroblast cells; Assay: Cell viability assay (Presto-Blue, Invitrogen); Doses (nM): 0, 50, 100 nM; Treatment period (hr): 24.
Human cancer cell lines (part of NCI-60 panel of human cancer cells)—SK-MEL-5 (melanoma), SK-MEL-28 (melanoma), MCF-7 (breast cancer), 786-0 (renal cancer), A498 (renal cancer), Hep-G2 (liver cancer), SK-HEP-1 (liver cancer), PANC-1 (pancreatic cancer), and normal human skin fibroblast cells MALME-3 cells were obtained from American Type Culture Collection (ATCC; Manassas, VA). […]
as §6

[6] = test system: SK-MEL-28 human melanoma cells
[7] = test system: MCF-7 human breast cancer cells; assay: Cell viability assay (Presto-Blue / resazurin), MCF-7
Description: as §1, with “MALME-3 cells were grown in McCoy's medium (ATCC) supplemented with 15% FBS and 1× antibiotic-antimycotic. Cells were grown at 37C/5% CO2 in a humidified incubator. Media was replaced every third day.” left out
(§7) A resazurin based absorption assay was performed measuring cell proliferation, as a measure of inhibition of cell growth/viability. There are several commonly practiced assays using tetrazolium (MTT, MTS, XTT), or resazurin which give a quantitative reflection of cell viability. […] Proliferating cells can be quantified by spectrophotometric measurement of a bright pink fluorescent product called resorufin (stable for >4 hr) formed when mildly fluorescent blue resazurin enters a reducing intracellular environment characteristic of proliferating cells. […]

[8] = test system: PANC-1 human pancreatic ductal adenocarcinoma cells; assay: Cell viability assay (Presto-Blue / resazurin), PANC-1
Description: as §1, with “MALME-3 cells were grown in McCoy's medium (ATCC) supplemented with 15% FBS and 1× antibiotic-antimycotic. Cells were grown at 37C/5% CO2 in a humidified incubator. Media was replaced every third day.” left out
as §7

## CC[C@H](C)[C@H](NC(=O)[C@H](CCCCN)NC(=O)[C@H](CCCCN)NC(=O)[C@H](C)NC(=O)[C@@H]1CCCN1C(=O)[C@H](CCCCN)NC(=O)[C@H](Cc1c[nH]cn1)NC(=O)[C@H](CO)NC(=O)[C@H](CC(C)C)NC(=O)[C@H](CO)NC(=O)[C@H](CC(C)C)NC(=O)[C@@H]1CCCN1C(=O)[C@H](Cc1c[nH]cn1)NC(=O)[C@H](CCCNC(=N)N)NC(=O)[C@@H](NC(=O)CNC(=O)[C@H](CCC(N)=O)NC(=O)[C@H](CCC(=O)O)NC(=O)[C@@H](N)CO)[C@@H](C)O)C(=O)N[C@@H](CC(=O)O)C(=O)N[C@H](C(=O)O)C(C)C [Cf4] (H-SEQGTRHPLSLSHKPAKKIDV-OH; N-terminus and C-terminus assumed)
[1]; 48 hr
  efficacy in inhibiting cell viability: highly efficacious
  inhibition of cell viability: 100%
[2]
  efficacy in inhibiting cell viability: highly efficacious
  inhibition of cell viability: 100%
[3]
  efficacy in inhibiting cell viability: highly efficacious
  inhibition of cell viability: 100%

## COc1cccc2c1C(=O)c1c(O)c3c(c(O)c1C2=O)C[C@@](O)(C(=O)CO)C[C@@H]3O[C@H]1C[C@H](N)[C@H](O)[C@H](C)O1 [doxorubicin, reference compound]
[1]; Homo sapiens, HepG2, read-out: doxorubicin EC50 for HepG2
  EC50: 190 nM
[1]; doxorubicin 300 nM, in absence of CIDEC
  cells killed: > 90%

## segment 120-140: segment of FSP27, amino acids 120-140; FIG. 13 discloses SEQ ID NO: 4, so possibly Cf4 (SEQGTRHPLSLSHKPAKKIDV)
[4]
  efficacy towards anti-cancer effect in cells: maximum efficacy

## YDLHCCGAKRIMKEAFRWALFSMQATGHVLLGTSCYLQQLLDATEEGQ (cysteines drawn unpaired) [Cf2]
[1]; 48 hr
  efficacy in inhibiting cell viability: highly efficacious
  inhibition of cell viability: 100%
[2]
  efficacy in inhibiting cell viability: highly efficacious
  inhibition of cell viability: 100%
[3]
  efficacy in inhibiting cell viability: highly efficacious
  inhibition of cell viability: 100%

B1: CIDEC: human full-length CIDEC (FSP27) protein, purchased from Abcam (protein, UniProt Q96AQ7 1-238, looked up)
chain: MEYAMKSLSLLYPKSLSRHVSVRTSVVTQQLLSEPSPKAPRARPCRVSTADRSVRKGIMAYSLEDLLLKVRDTLMLADKPFFLVLEEDGTTVETEEYFQALAGDTVFMVLQKGQKWQPPSEQGTRHPLSLSHKPAKKIDVARVTFDLYKLNPQDFIGCLNVKATFYDTYSLSYDLHCCGAKRIMKEAFRWALFSMQATGHVLLGTSCYLQQLLDATEEGQPPKGKASSLIPTCLKILQ
modifications: full-length
notes: human full-length CIDEC (FSP27) protein, purchased from Abcam
[5]
  decrease in cell viability of normal cells: no significant decrease in cell viability
[1]; 50 nM CIDEC plus anti-cancer drug, 48 hr
  effect on efficacy of sorafenib-tosylate against liver cancer: significant increase in efficacy
[1]; HepG2, 0-400 nM CIDEC, read-out: EC50 (dose that causes 50% decrease of cell viability)
  EC50: 65 nM
[1]; HepG2, 24 hr, doses 0-400 nM, read-out: IC50, sigmoid inhibition curve of cell viability
  IC50: 65 nM
[1]; co-administration of fl-CIDEC with sorafenib-tosylate (1000 nM), 24 hr
  decrease in cell viability of liver cancer cells treated with sorafenib-tosylate: 2 fold
[6]; 50 nM CIDEC plus anti-cancer drugs, 48 hr
  improvement of drug effects in human melanoma: did not improve drug effects
[6]; SK-MEL-28, 24 hr, doses 0-400 nM, read-out: IC50, sigmoid inhibition curve of cell viability
  IC50: > 400 nM
[6]; SK-MEL-28, up to 400 nM CIDEC, read-out: EC50 (cell viability)
  EC50: > 400 nM
[6]; co-administration, 24 hr, doxorubicin 300 nM, vemurafenib 50 nM
  improvement of cell inhibition rate above that of doxorubicin or vemurafenib: did not improve the cell inhibition rate
[7]; MCF-7, 0-400 nM CIDEC
  EC50: 187 nM
[7]; MCF-7, 24 hr, doses 0-400 nM, read-out: IC50, sigmoid inhibition curve of cell viability
  IC50: 187 nM
[8]; PANC1, 0-400 nM CIDEC
  EC50: 132 nM
[8]; PANC-1, 24 hr, doses 0-400 nM, read-out: IC50, sigmoid inhibition curve of cell viability
  IC50: 132 nM
[3]; 786-0, up to 400 nM CIDEC, read-out: EC50 (cell viability)
  EC50: > 400 nM
[3]; 786-O, 24 hr, doses 0-400 nM, read-out: IC50, sigmoid inhibition curve of cell viability
  IC50: > 400 nM
